The series can be described thus: gradient 5% acetonitrile 3 min, to 50% in 2 min, to 85% in 15 min, held 3 min, 100 µL/min. The conditions noted are these: column: Zorbax Extend-C18 2.1 x 50 mm; eluents: water / acetonitrile, 0.1% formic acid. The procedure, abridged:
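Pure standards were run in mixtures of ~100 molecules by HPLC coupled to a quadrupole time-of-flight mass spectrometer. The column was a Zorbax Extend-C18 (2.1 × 50 mm, 1.8 μm) at 100 μL/min, with water and acetonitrile each containing 0.1% formic acid, in positive and negative ionization mode. Dead and dwell volumes were 40 μL and 900 μL. Retention time was taken from computationally picked adduct peaks, each manually inspected, with data collected over 3 months.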
`c1ccn(CCc2ccncc2)c1` showed an RP-LC retention time of 616 s.

As to `COc1ccc(-c2nnc(Cc3nc(-c4ccccc4F)no3)o2)cc1OC`, the RP-LC retention time is 848 s.

As to `COc1ccc(CN2CN=C(Nc3nc(C)c4cc(C)ccc4n3)NC2)cc1`, the RP-LC retention time is 766 s. On to `O=C(NCCc1csc(-c2cccs2)n1)C1CCN(S(=O)(=O)c2ccccc2)CC1`, for which the RP-LC retention time worked out at 889 s.

Turning to `COc1ccc(-n2nnc(-c3nsc(Nc4cccc(Cl)c4)n3)c2C)cc1`, the RP-LC retention time was 1080 s.

`Cc1cc(C2CCCN2C(=O)NC(C)(C)C)no1` (centres undefined) yielded an RP-LC retention time of 752 s. For `CC(=O)Nc1ccc(NC(=O)C2CCCN(c3nc4ccccc4nc3C(F)(F)F)C2)cc1` (centres undefined) the value was 910 s; for `O=C(CCc1csc(NC(=O)NC2CCCCC2)n1)NCc1cccs1`, 711 s; for `O=C(Cn1c2ccccc2c2ncn(Cc3nc(-c4ccccc4)no3)c(=O)c21)NC1CCCC1`, 912 s. To `CC1CCN(c2ccc(N3CCN(S(=O)(=O)c4cc(F)ccc4F)CC3)nn2)CC1` belongs 606 s; to `O=C(NC1CCN(c2cc(-c3cccs3)[nH]n2)C1)c1ccccc1` (centres undefined), 695 s; to `COc1cccc(N2CCN(c3ccnc(SCC(=O)Nc4ccc(F)c(Cl)c4)n3)CC2)c1`, 806 s. Turning to `CN1CCN(CCNC(=O)c2ccc3c(c2)N(S(=O)(=O)c2ccccc2F)CC3)CC1`, the RP-LC retention time came out at 617 s. Turning to `COc1ccc(OC)c(Nc2c(-c3ccc(C)cc3)nc3cnccn23)c1`, the RP-LC retention time was 911 s. As for `O=C(Nc1ccc(OCC(=O)N2CCN(c3ccccn3)CC2)nc1)C1CC1`, the RP-LC retention time came to 580 s. For `O=C(NCc1ccccc1Cl)C1CCN(c2cncnc2N2CCCC2)CC1` the value was 677 s. In turn, `Cc1nnc(-c2ccc3ccn(CC(=O)Nc4ccccn4)c3c2)o1` had an RP-LC retention time of 670 s.

Molecule `CCOc1nc2c(c(C)nn2-c2cccc(C)c2)c(C)c1CCC(=O)NCCc1c[nH]c2ccccc12` had an RP-LC retention time of 1260 s.

`COc1cccc(-c2noc(C3CCCN3C(=O)Nc3cc(C)ccc3C)n2)c1` (centres undefined) had an RP-LC retention time of 1020 s. With `Cc1ccccc1CC(=O)Nc1cc(-c2cccs2)no1`, the RP-LC retention time came to 969 s. In the case of `Cc1cccc(-c2nc3ccccn3c2NC(=O)NC2CCCC2)c1`, the RP-LC retention time turned out to be 639 s. For `CCOc1ccc(-c2noc(N3CCC(C(=O)N4CCCCC4)CC3)n2)cc1OC` the value was 889 s.

`Cc1ccc(N2CCN(C(=O)c3cc(C)n4nccc4n3)CC2)cc1` showed an RP-LC retention time of 818 s. The molecule `Cc1noc(C)c1CN1CCN(C(=O)NCc2cccc(F)c2)CC1` yielded an RP-LC retention time of 599 s. `CCN1CCN(Cc2nc(-c3ccc(N(C)Cc4ccccc4)nc3)no2)CC1`: the RP-LC retention time turned out to be 892 s. In turn, `Cn1ncc2c3ccccc3n(CC(=O)NCCCN3CCOCC3)c2c1=O` returned an RP-LC retention time of 582 s. The molecule `Cc1ccn2cc(C(=O)NCc3ccccc3F)nc2c1` displayed an RP-LC retention time of 628 s. For `COc1cc(CCC(=O)Nc2c(C(=O)N3CCN(c4ccccn4)CC3)oc3ccccc23)on1` the value was 642 s; for `Cc1ccc(-c2cn3ccn(-c4ccc(F)cc4)c(=O)c3n2)cc1`, 827 s. `O=C(NCc1ccc(F)cc1)C1CCN(c2cnc3nccnc3c2)CC1` yielded an RP-LC retention time of 769 s. For `Cc1oc(-c2[nH]ncc2C(=O)N(C)C)cc1S(=O)(=O)Nc1ccccc1F` the value was 658 s; for `Cc1ccc(-c2nc3nc(C)cc(N(C)CCO)n3n2)cc1`, 638 s; for `O=S(=O)(c1ccccc1F)N1CC(c2nc(Cc3ccccc3)no2)C1`, 976 s. `CN(CC1CCOCC1)C(=O)Cc1ccccc1Cl` had an RP-LC retention time of 771 s. On to `COc1ccc(-c2c(C(=O)Nc3ccc4c(c3)OCCO4)nc3ccccn23)cc1`, for which the RP-LC retention time worked out at 919 s.

In turn, `CCCCCNC(=O)c1cnn2c(-c3ccc4c(c3)OCO4)ccnc12` showed an RP-LC retention time of 1010 s. Molecule `O=c1c2cnc3nc(-c4ccccc4Cl)nn3c2ccn1CCc1c[nH]c2ccccc12` gave an RP-LC retention time of 950 s. In turn, `CCSc1ccccc1C(=O)NCC1(c2ccccc2OC)CCOCC1` had an RP-LC retention time of 843 s. Molecule `O=C(Cn1cnc2cc3c(cc21)OCCO3)Nc1ccc2c(c1)OCCCO2` had an RP-LC retention time of 622 s.

`O=S(=O)(c1cc(-c2nnc(C3CCC3)o2)co1)N1CCC(N2CCCCC2)CC1` showed an RP-LC retention time of 642 s. `CC(C)n1c(N2CCCN(C(=O)c3ccnn3C)CC2)cc(=O)n(C(C)C)c1=O`: the RP-LC retention time is 707 s. For `CCC(C)C(=O)NC1CCN(C2=NS(=O)(=O)C(c3ccc(C(C)C)cc3)=C2C)CC1` (centres undefined) the value was 962 s; for `Cc1ccc(-c2ccc(N3CCN(c4ccccn4)CC3)nn2)cc1S(=O)(=O)N1CCCC1`, 656 s. `CCCn1c(C)c(C)c(S(=O)(=O)c2ccc(OC)cc2)c1NC(=O)C1CCCO1` (centres undefined): the RP-LC retention time turned out to be 898 s. To `COc1cc(F)c(F)c(Nc2ccc(I)cc2F)c1NS(=O)(=O)C1(C[C@H](O)CO)CC1` belongs 1050 s. On to `CCN(CC)S(=O)(=O)c1cc(-c2nnc(-c3ccc(OC)c(OC)c3)o2)ccc1Cl`, for which the RP-LC retention time worked out at 1010 s. In turn, `CCOc1ccc(-n2ccn3c(CCCC(=O)NCCc4c[nH]c5ccccc45)nnc3c2=O)cc1` gave an RP-LC retention time of 761 s.

As to `CCCCCCNC(=O)C1CCCN(c2ncc(-c3ccc(F)cc3)cn2)C1` (centres undefined), the RP-LC retention time stood at 1160 s. For `CCn1nc(C)n2cc(S(=O)(=O)NCc3ccco3)cc2c1=O` the value was 779 s. For the molecule `COc1cc(OC)c(NC(=O)N2CCN(CCn3c(C(C)C)nc4cccnc43)CC2)cc1Cl`, the RP-LC retention time was determined as 618 s. Molecule `CCOC(=O)c1c(C)oc2nc(C)nc(NCCCN3CCN(c4cccc(C)c4)C(C)C3)c12` (centres undefined) came in with an RP-LC retention time of 778 s.

`O=C(Cc1cn(Cc2ccc(Cl)cc2)c2ccccc12)NCc1ccccn1` yielded an RP-LC retention time of 700 s. For `Cc1ccc(C)c(NC(=O)Cn2c(N)nc(C)c(C)c2=O)c1` the value was 631 s. As to `Cc1cc(C(=O)N2C[C@@H](C)[C@H](c3nc(-c4ccccc4)no3)C2)n[nH]1`, the RP-LC retention time was found to be 804 s. As to `CCC(C)C1Nc2ccc(C(=O)NCCCOC)cc2NC1=O` (centres undefined), the RP-LC retention time stood at 653 s. On to `COc1ccc(Cl)cc1C(=O)N1CCN(c2cc(-n3nc(C)cc3C)nc(C)n2)CC1`, for which the RP-LC retention time was 988 s. Turning to `CCc1cc(N2CCN(C(=O)c3ccccc3)CC2)nc2nnc(C)n12`, the RP-LC retention time is 604 s. For the molecule `O=C(c1cccc(Nc2c(-c3ccc(Cl)cc3)nc3cnccn23)c1)N1CCOCC1`, the RP-LC retention time amounted to 719 s.

Molecule `Cn1cc(Cl)c(C(=O)N2CCCC2c2ccccc2F)n1` (centres undefined) returned an RP-LC retention time of 813 s.

(Values after the METLIN SMRT retention time set (Domingo-Almenara et al. 2019).)
